Test results taken from publication PMC10638440, “Structural basis of bile salt extrusion and small-molecule inhibition in human BSEP” (Nature Communications, 2023).

Columns and labels:
BSEP [1] = biological target: T1, BSEP (Homo sapiens, UniProt O95342); test: cryo-EM structure of vanadate-trapped BSEP at […] Å; format: binding; set-up: gene ABCB11; full-length wild-type, nanodisc-reconstituted
BSEPE1244Q = biological target: T2, BSEPE1244Q (Homo sapiens, UniProt O95342, E1244Q); test: cryo-EM structure at […] Å; format: binding
T2 construct: gene ABCB11; full-length, nanodisc-reconstituted
T2 sequence (O95342 whole entry E1244Q): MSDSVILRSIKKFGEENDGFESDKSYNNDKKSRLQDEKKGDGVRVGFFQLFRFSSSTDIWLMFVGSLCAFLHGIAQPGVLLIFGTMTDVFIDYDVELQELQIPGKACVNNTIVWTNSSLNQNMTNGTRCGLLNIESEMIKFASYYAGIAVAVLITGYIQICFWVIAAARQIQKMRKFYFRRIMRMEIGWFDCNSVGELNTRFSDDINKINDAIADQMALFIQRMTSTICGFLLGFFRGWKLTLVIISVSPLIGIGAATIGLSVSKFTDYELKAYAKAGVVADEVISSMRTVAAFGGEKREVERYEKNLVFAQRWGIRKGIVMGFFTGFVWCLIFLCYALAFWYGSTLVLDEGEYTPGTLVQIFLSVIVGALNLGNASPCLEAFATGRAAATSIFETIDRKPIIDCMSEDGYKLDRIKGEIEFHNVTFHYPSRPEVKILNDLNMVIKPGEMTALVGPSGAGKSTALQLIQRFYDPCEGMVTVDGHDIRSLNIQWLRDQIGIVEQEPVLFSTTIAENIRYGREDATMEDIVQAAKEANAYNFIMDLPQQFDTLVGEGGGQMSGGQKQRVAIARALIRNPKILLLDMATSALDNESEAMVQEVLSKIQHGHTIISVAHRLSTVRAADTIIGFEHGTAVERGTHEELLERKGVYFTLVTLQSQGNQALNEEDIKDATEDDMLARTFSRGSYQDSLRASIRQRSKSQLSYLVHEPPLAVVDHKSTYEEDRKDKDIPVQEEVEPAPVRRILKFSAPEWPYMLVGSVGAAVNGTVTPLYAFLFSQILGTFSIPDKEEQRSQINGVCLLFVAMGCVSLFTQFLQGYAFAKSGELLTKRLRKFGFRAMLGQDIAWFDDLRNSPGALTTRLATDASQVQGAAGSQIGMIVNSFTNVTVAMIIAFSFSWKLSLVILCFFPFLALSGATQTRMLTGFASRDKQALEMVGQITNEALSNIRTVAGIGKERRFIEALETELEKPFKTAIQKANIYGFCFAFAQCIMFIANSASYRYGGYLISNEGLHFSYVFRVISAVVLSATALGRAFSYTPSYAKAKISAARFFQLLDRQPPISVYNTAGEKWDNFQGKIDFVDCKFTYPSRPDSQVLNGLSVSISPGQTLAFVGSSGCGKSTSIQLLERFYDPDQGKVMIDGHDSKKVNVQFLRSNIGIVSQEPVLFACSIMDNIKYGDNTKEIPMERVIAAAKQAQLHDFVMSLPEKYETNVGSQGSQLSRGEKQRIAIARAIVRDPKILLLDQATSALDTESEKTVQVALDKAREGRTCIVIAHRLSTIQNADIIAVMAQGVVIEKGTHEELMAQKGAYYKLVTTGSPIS

BSEP [2] = biological target: T1, BSEP; set-up: gene ABCB11
BSEP N996A = biological target: T3, BSEP N996A (Homo sapiens, UniProt O95342, N996A); test: GBM-stimulated ATPase activity ([…] GBM); format: biochemical
T3 construct: gene ABCB11; full-length
T3 sequence (O95342 whole entry N996A): as the sequence (O95342 whole entry E1244Q) above, with N996A, Q1244E counted along it

T1 sequence (O95342 whole entry): as the sequence (O95342 whole entry E1244Q) above, with Q1244E counted along it

## Nc1ncnc2c1ncn2[C@@H]1O[C@H](COP(=O)(O)OP(=O)(O)O)[C@@H](O)[C@H]1O [ADP]
BSEP [1]
  cryo-EM structure of vanadate-trapped BSEP at 2.8 Å: trapping ADP and preventing its release from NBS2

## Nc1ncnc2c1ncn2[C@@H]1O[C@H](CO[P@@](=O)(O)O[P@](=O)(O)OP(=O)(O)O)[C@@H](O)[C@H]1O [ATP]
BSEPE1244Q
  cryo-EM structure at 3.0 Å: We observed two distinct EM densities in the two NBSs, each corresponding to an ATP molecule
BSEP [2]
  Km: 207 µM

## COc1ccc(Cl)cc1C(=O)NCCc1ccc(S(=O)(=O)NC(=O)NC2CCCCC2)cc1 [GBM, glibenclamide]
BSEP N996A
  GBM-stimulated ATPase activity (300 μM GBM): N996A and S1022F exhibit increased basal ATPase activity compared to the wild-type BSEP, and their activity is stimulated by GBM
